PubChem BioAssay (NCI)
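Following 48 hours of exposure in 96-well plates, responses at five concentrations were used to interpolate endpoints linearly. Abbreviation: GI50, concentration required for 50% inhibition of growth. TGI marks complete inhibition of growth.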

How the values were obtained:
Experiment in all cases: inhibition of tumour cell growth, NCI panel, 48 h
HT29 colon = test system: HT29 colon
SNB-75 CNS = test system: SNB-75 CNS
OVCAR-8 ovarian = test system: OVCAR-8 ovarian
MDA-MB-435 = test system: MDA-MB-435
OVCAR-4 ovarian = test system: OVCAR-4 ovarian
NCI-H226 lung = test system: NCI-H226 lung
HCC-2998 colon = test system: HCC-2998 colon
SF-295 CNS = test system: SF-295 CNS
EKVX NSCLC = test system: EKVX NSCLC
SK-OV-3 ovarian = test system: SK-OV-3 ovarian

| Compound | GI50 (HT29 colon) | TGI (HT29 colon) | GI50 (SNB-75 CNS) | TGI (SNB-75 CNS) | GI50 (OVCAR-8 ovarian) | TGI (OVCAR-8 ovarian) | GI50 (MDA-MB-435) | TGI (MDA-MB-435) | GI50 (OVCAR-4 ovarian) | TGI (OVCAR-4 ovarian) | GI50 (NCI-H226 lung) | TGI (NCI-H226 lung) | GI50 (HCC-2998 colon) | TGI (HCC-2998 colon) | GI50 (SF-295 CNS) | TGI (SF-295 CNS) | GI50 (EKVX NSCLC) | TGI (EKVX NSCLC) | TGI (SK-OV-3 ovarian) | GI50 (SK-OV-3 ovarian) |
| --- | --- | --- | --- | --- | --- | --- | --- | --- | --- | --- | --- | --- | --- | --- | --- | --- | --- | --- | --- | --- |
| O=C1NC(=O)N(S(=O)(=O)c2cc(C(=O)Nc3ccc(Cl)cc3)c(Cl)cc2S)S(=O)(=O)N1 | 23.8 µM | > 100 µM | 38.9 µM | > 100 µM | 24.8 µM | 64.4 µM | 18.5 µM | 34.3 µM | 24.2 µM | > 100 µM | 22.2 µM | 56.1 µM | 12.9 µM | 30 µM | 23.4 µM | 43.1 µM | 18.3 µM | 38.9 µM | – | – |
| CCCCC(C(=O)C(=O)Nc1ccccc1CC)C(=O)C(C)C (centres undefined) | – | > 100 µM | – | – | – | > 100 µM | – | – | – | > 100 µM | – | > 100 µM | – | > 100 µM | – | > 100 µM | – | > 100 µM | > 100 µM | – |
| O=[N+]([O-])c1ccc(/C=C(/c2ccc([N+](=O)[O-])o2)S(=O)(=O)c2ccccc2)cc1 | – | > 100 µM | – | > 100 µM | – | > 100 µM | – | > 100 µM | – | > 100 µM | – | 75 µM | – | – | – | > 100 µM | – | – | > 100 µM | – |
| OCc1ccc(N2CCc3ccc(F)cc3C2)cc1Cl | 0.229 µM | 6.61 µM | 11.5 µM | 25.3 µM | 7.05 µM | 20.7 µM | 8.69 µM | 22 µM | 0.0799 µM | 0.772 µM | 0.0267 µM | 0.114 µM | 1.7 µM | 14.4 µM | 0.0728 µM | 1.96 µM | – | – | 13.6 µM | 2.71 µM |
| NS(=O)(=O)c1cc2c(cc1Cl)NCNS2(=O)=O | – | > 100 µM | – | > 100 µM | – | > 100 µM | – | > 100 µM | – | > 100 µM | – | > 100 µM | – | > 100 µM | – | > 100 µM | – | > 100 µM | – | – |
| O=C(O)c1cn(C2CC2)c2cc(N3CCN(C(=O)N(c4ccccc4)c4nc(-c5ccccc5)cs4)CC3)c(F)cc2c1=O | – | – | 0.334 µM | 2.8 µM | 0.378 µM | > 100 µM | – | – | 0.526 µM | > 100 µM | – | – | 0.595 µM | > 100 µM | 0.305 µM | 3.04 µM | 0.397 µM | > 100 µM | – | – |
| COc1ccc(C(C)Nc2cc(OC)c(OC)c(OC)c2)cc1 (centres undefined) | – | > 100 µM | – | > 100 µM | – | > 100 µM | – | – | – | 63.8 µM | – | > 100 µM | – | > 72.2 µM | – | 7.53 µM | – | > 100 µM | > 62.5 µM | – |
| CC(C)CCCC(C)C1CCC2C3CC([N+](=O)[O-])=C4CC(O)CCC4(C)C3CCC12C (centres undefined) | – | 55.5 µM | – | 41.5 µM | – | 47.4 µM | – | – | – | 43 µM | – | – | – | 37.2 µM | – | 30 µM | – | 57.2 µM | – | – |
| O=C1NC(=NCc2cccs2)O/C1=C\c1ccc2ncccc2c1 | 6.12 µM | 21.2 µM | 1.72 µM | 8.08 µM | 4.27 µM | 16.6 µM | 4.51 µM | 14.4 µM | 4.5 µM | > 20.3 µM | 5.82 µM | > 19.8 µM | 7.76 µM | > 25 µM | 5.03 µM | 15.9 µM | – | – | 12.2 µM | 4.1 µM |
| ON1CCc2c([nH]c3ccccc23)C1c1ccc(Cl)cc1 (centres undefined) | – | 40.1 µM | – | > 100 µM | – | > 100 µM | – | – | – | – | – | 73 µM | – | 72.3 µM | – | 91 µM | – | > 100 µM | > 100 µM | – |
| COC1=CC(=O)C(O)=C(CC2(C)C(C)CCC3(C)C2CCCC3(C)C)C1=O (centres undefined) | – | 23.1 µM | – | 19 µM | – | 26.2 µM | – | – | – | > 100 µM | – | 9.91 µM | – | 17.8 µM | – | 16.3 µM | – | 69.7 µM | > 100 µM | – |
| O=c1c(Oc2ccc(F)cc2F)cc2cnc(NC3CCOCC3)nc2n1C1CC1 | > 25 µM | > 25 µM | > 25 µM | > 25 µM | > 25 µM | > 25 µM | > 25 µM | > 25 µM | > 25 µM | > 25 µM | > 22.9 µM | > 25 µM | > 25 µM | > 25 µM | > 25 µM | > 25 µM | – | – | > 25 µM | > 25 µM |
| COc1ccc(Cn2c(Br)c3c(c2-c2cc(OC)c(OC)c(OC)c2)CCc2sc(N)nc2-3)cc1 | 0.731 µM | 5.48 µM | 0.688 µM | 31.8 µM | 1.32 µM | 16.9 µM | 0.224 µM | 0.537 µM | 2.5 µM | > 57.3 µM | 6.93 µM | > 50.6 µM | 2.93 µM | 12.3 µM | 0.556 µM | 7.57 µM | – | – | 8.04 µM | 1.2 µM |
| CC(C)(C)c1ccc(OCCOCCOc2ccc(C(C)(C)C)cc2S(N)(=O)=O)c(S(N)(=O)=O)c1 | – | > 100 µM | – | > 100 µM | – | > 100 µM | – | – | – | > 100 µM | – | > 100 µM | – | > 100 µM | – | > 100 µM | – | > 100 µM | > 100 µM | – |
| FC(F)(F)c1cccc(CNC2CCN(CCc3ccccc3)CC2)c1 | 13.5 µM | 46.1 µM | 11.7 µM | 33.6 µM | 18.2 µM | 43.8 µM | 15.9 µM | 30.8 µM | 23.1 µM | > 100 µM | 62.4 µM | > 100 µM | 17.7 µM | 37.2 µM | 17.2 µM | 35.4 µM | – | – | > 100 µM | 38.9 µM |
| CCN1CCN(CC(=O)Nc2nc3ccc(NCc4ccc(Br)cc4)cc3s2)CC1 | – | – | 1.59 µM | 3.29 µM | 3.25 µM | > 100 µM | 1.69 µM | 3.23 µM | 3.19 µM | 26.8 µM | 7.89 µM | > 100 µM | – | – | – | – | 3.02 µM | > 100 µM | – | – |
